# Source: PubChem BioAssay AID2060483 (Molecular Pharmacology Branch, DTP, NCI, 2025)
# Tested on: K24384-001-R-PDC complex spheroids, viability
# Assay: Anticancer human tumor K24384-001-R-PDC patient-derived pancreatic adenocarcinoma cell line growth inhibition [GQUAD]
# Conditions: for IC50: curve of first compound; for viability, T/C: stronger effect = lower value
# Method in brief: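 Multi-cell-type spheroids of tumor cells with HUVEC and mesenchymal stem cells, treated with drug combinations. Concentrations descend in half-log steps from near clinical Cmax, or from 10 microM where Cmax is unknown; viability read-out.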
# [1] = second compound 0.0316 µM, first compound 0.0316 µM
# [2] = second compound 0.0316 µM, first compound 0.1 µM
# [3] = second compound 0.0316 µM, first compound 0.316 µM
# [4] = second compound 0.0316 µM, first compound 1 µM
# [5] = second compound 0.0316 µM, first compound 3.16 µM
# [6] = second compound 0.0316 µM, first compound 10 µM
# [7] = second compound 0.1 µM, first compound 0.0316 µM
# [8] = second compound 0.1 µM, first compound 0.1 µM
# [9] = second compound 0.1 µM, first compound 0.316 µM
# [10] = second compound 0.1 µM, first compound 1 µM
# [11] = second compound 0.1 µM, first compound 3.16 µM
# [12] = second compound 0.1 µM, first compound 10 µM
# [13] = second compound 0.316 µM, first compound 0.0316 µM
# [14] = second compound 0.316 µM, first compound 0.1 µM
# [15] = second compound 0.316 µM, first compound 0.316 µM
# [16] = second compound 0.316 µM, first compound 1 µM
# [17] = second compound 0.316 µM, first compound 3.16 µM
# [18] = second compound 0.316 µM, first compound 10 µM
# [19] = second compound 1 µM, first compound 0.0316 µM
# [20] = second compound 1 µM, first compound 0.1 µM
# [21] = second compound 1 µM, first compound 0.316 µM
# [22] = second compound 1 µM, first compound 1 µM
# [23] = second compound 1 µM, first compound 3.16 µM
# [24] = second compound 1 µM, first compound 10 µM
# [25] = second compound 3.16 µM, first compound 0.0316 µM
# [26] = second compound 3.16 µM, first compound 0.1 µM
# [27] = second compound 3.16 µM, first compound 0.316 µM
# [28] = second compound 3.16 µM, first compound 1 µM
# [29] = second compound 3.16 µM, first compound 3.16 µM
# [30] = second compound 3.16 µM, first compound 10 µM
# [31] = second compound 10 µM, first compound 0.0316 µM
# [32] = second compound 10 µM, first compound 0.1 µM
# [33] = second compound 10 µM, first compound 0.316 µM
# [34] = second compound 10 µM, first compound 1 µM
# [35] = second compound 10 µM, first compound 3.16 µM
# [36] = second compound 10 µM, first compound 10 µM
# [37] = second compound 0.0316 µM, first compound 0.000999 µM
# [38] = second compound 0.0316 µM, first compound 0.00316 µM
# [39] = second compound 0.0316 µM, first compound 0.00999 µM
# [40] = second compound 0.0316 µM, first compound 0.0999 µM
# [41] = second compound 0.1 µM, first compound 0.000999 µM
# [42] = second compound 0.1 µM, first compound 0.00316 µM
# [43] = second compound 0.1 µM, first compound 0.00999 µM
# [44] = second compound 0.1 µM, first compound 0.0999 µM
# [45] = second compound 0.316 µM, first compound 0.000999 µM
# [46] = second compound 0.316 µM, first compound 0.00316 µM
# [47] = second compound 0.316 µM, first compound 0.00999 µM
# [48] = second compound 0.316 µM, first compound 0.0999 µM
# [49] = second compound 1 µM, first compound 0.000999 µM
# [50] = second compound 1 µM, first compound 0.00316 µM
# [51] = second compound 1 µM, first compound 0.00999 µM
# [52] = second compound 1 µM, first compound 0.0999 µM
# [53] = second compound 3.16 µM, first compound 0.000999 µM
# [54] = second compound 3.16 µM, first compound 0.00316 µM
# [55] = second compound 3.16 µM, first compound 0.00999 µM
# [56] = second compound 3.16 µM, first compound 0.0999 µM
# [57] = second compound 10 µM, first compound 0.000999 µM
# [58] = second compound 10 µM, first compound 0.00316 µM
# [59] = second compound 10 µM, first compound 0.00999 µM
# [60] = second compound 10 µM, first compound 0.0999 µM
# 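Further: spheroids exposed to compounds for seven days.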
structure (smiles),measurement,setting,value
C=CC(=O)N1CCN(c2nc(=O)n(-c3c(C)ccnc3C(C)C)c3nc(-c4c(O)cccc4F)c(F)cc23)C(C)C1 (stereo not drawn) + Cc1[nH]c2ccc(F)cc2c1-c1nc2c3cccnc3c3ncccc3c2[nH]1,IC50,second compound 0.0316 µM,> 10000 nM
same,IC50,second compound 0.1 µM,> 10000 nM
same,IC50,second compound 0.316 µM,> 10000 nM
same,IC50,second compound 1 µM,> 10000 nM
same,IC50,second compound 3.16 µM,> 10000 nM
same,IC50,second compound 10 µM,> 10000 nM
same,"viability, T/C",[1],111%
same,"viability, T/C",[2],78.9%
same,"viability, T/C",[3],104%
same,"viability, T/C",[4],101%
same,"viability, T/C",[5],111%
same,"viability, T/C",[6],88.3%
same,"viability, T/C",[7],96%
same,"viability, T/C",[8],96.8%
same,"viability, T/C",[9],95%
same,"viability, T/C",[10],117%
same,"viability, T/C",[11],106%
same,"viability, T/C",[12],77.4%
same,"viability, T/C",[13],110%
same,"viability, T/C",[14],92.8%
same,"viability, T/C",[15],95.2%
same,"viability, T/C",[16],119%
same,"viability, T/C",[17],101%
same,"viability, T/C",[18],83.3%
same,"viability, T/C",[19],92.8%
same,"viability, T/C",[20],105%
same,"viability, T/C",[21],99.5%
same,"viability, T/C",[22],103%
same,"viability, T/C",[23],96.2%
same,"viability, T/C",[24],70.1%
same,"viability, T/C",[25],71.7%
same,"viability, T/C",[26],74.8%
same,"viability, T/C",[27],71.2%
same,"viability, T/C",[28],84.4%
same,"viability, T/C",[29],79.2%
same,"viability, T/C",[30],67.1%
same,"viability, T/C",[31],66%
same,"viability, T/C",[32],63.7%
same,"viability, T/C",[33],65.7%
same,"viability, T/C",[34],72.3%
same,"viability, T/C",[35],80.5%
same,"viability, T/C",[36],60.8%
CC[C@@]1(O)C(=O)OCc2c1cc1n(c2=O)Cc2cc3c(CN(C)C)c(O)ccc3nc2-1 + Cc1[nH]c2ccc(F)cc2c1-c1nc2c3cccnc3c3ncccc3c2[nH]1,IC50,second compound 0.0316 µM,> 316 nM
same,IC50,second compound 0.1 µM,292 nM
same,IC50,second compound 0.316 µM,233 nM
same,IC50,second compound 1 µM,239 nM
same,IC50,second compound 3.16 µM,139 nM
same,IC50,second compound 10 µM,146 nM
same,"viability, T/C",[37],102%
same,"viability, T/C",[38],110%
same,"viability, T/C",[39],95.7%
same,"viability, T/C",[1],80.9%
same,"viability, T/C",[40],61.3%
same,"viability, T/C",[3],51.2%
same,"viability, T/C",[41],83.5%
same,"viability, T/C",[42],113%
same,"viability, T/C",[43],82.4%
same,"viability, T/C",[7],87.7%
same,"viability, T/C",[44],65.8%
same,"viability, T/C",[9],49%
same,"viability, T/C",[45],85.4%
same,"viability, T/C",[46],92.2%
same,"viability, T/C",[47],83.1%
same,"viability, T/C",[13],82.9%
same,"viability, T/C",[48],68.3%
same,"viability, T/C",[15],43.4%
same,"viability, T/C",[49],95.7%
same,"viability, T/C",[50],92.8%
same,"viability, T/C",[51],98.8%
same,"viability, T/C",[19],76.8%
same,"viability, T/C",[52],59%
same,"viability, T/C",[21],46.7%
same,"viability, T/C",[53],73.8%
same,"viability, T/C",[54],74.7%
same,"viability, T/C",[55],79.1%
same,"viability, T/C",[25],81.2%
same,"viability, T/C",[56],53.6%
same,"viability, T/C",[27],41%
same,"viability, T/C",[57],78.1%
same,"viability, T/C",[58],55%
same,"viability, T/C",[59],66.4%
same,"viability, T/C",[31],67.4%
same,"viability, T/C",[60],58.8%
same,"viability, T/C",[33],31.3%
CCc1c2c(nc3ccc(O)cc13)-c1cc3c(c(=O)n1C2)COC(=O)[C@]3(O)CC + Cc1[nH]c2ccc(F)cc2c1-c1nc2c3cccnc3c3ncccc3c2[nH]1,IC50,second compound 0.0316 µM,9.41 nM
same,IC50,second compound 0.1 µM,11.4 nM
same,IC50,second compound 0.316 µM,9.43 nM
same,IC50,second compound 1 µM,11.7 nM
same,IC50,second compound 3.16 µM,6.05 nM
same,IC50,second compound 10 µM,4.02 nM
same,"viability, T/C",[37],96.3%
same,"viability, T/C",[38],62.2%
same,"viability, T/C",[39],53.5%
same,"viability, T/C",[1],38.9%
same,"viability, T/C",[40],29.3%
same,"viability, T/C",[3],27.2%
same,"viability, T/C",[41],79.8%
same,"viability, T/C",[42],72.7%
same,"viability, T/C",[43],51.5%
same,"viability, T/C",[7],33.1%
same,"viability, T/C",[44],31.3%
same,"viability, T/C",[9],21.4%
same,"viability, T/C",[45],72%
same,"viability, T/C",[46],61.3%
same,"viability, T/C",[47],47.5%
same,"viability, T/C",[13],41.8%
same,"viability, T/C",[48],28.3%
same,"viability, T/C",[15],23.7%
same,"viability, T/C",[49],70.6%
same,"viability, T/C",[50],57.1%
same,"viability, T/C",[51],51.5%
same,"viability, T/C",[19],42.2%
same,"viability, T/C",[52],39.9%
same,"viability, T/C",[21],26.8%
same,"viability, T/C",[53],65%
same,"viability, T/C",[54],55.5%
same,"viability, T/C",[55],41.3%
same,"viability, T/C",[25],38.1%
same,"viability, T/C",[56],30.8%
same,"viability, T/C",[27],13.7%
same,"viability, T/C",[57],60.4%
same,"viability, T/C",[58],48.9%
same,"viability, T/C",[59],43.8%
same,"viability, T/C",[31],28.4%
same,"viability, T/C",[60],15.1%
same,"viability, T/C",[33],11%
COc1cc(C2c3cc4c(cc3C(OC3OC5COC(C)OC5C(O)C3O)C3COC(=O)C23)OCO4)cc(OC)c1O (stereo not drawn) + Cc1[nH]c2ccc(F)cc2c1-c1nc2c3cccnc3c3ncccc3c2[nH]1,IC50,second compound 0.0316 µM,3000 nM
same,IC50,second compound 0.1 µM,1320 nM
same,IC50,second compound 0.316 µM,1940 nM
same,IC50,second compound 1 µM,2780 nM
same,IC50,second compound 3.16 µM,1860 nM
same,IC50,second compound 10 µM,688 nM
same,"viability, T/C",[1],104%
same,"viability, T/C",[2],96%
same,"viability, T/C",[3],73.3%
same,"viability, T/C",[4],71%
same,"viability, T/C",[5],47.1%
same,"viability, T/C",[6],33.5%
same,"viability, T/C",[7],90%
same,"viability, T/C",[8],94.7%
same,"viability, T/C",[9],68.8%
same,"viability, T/C",[10],57%
same,"viability, T/C",[11],37.5%
same,"viability, T/C",[12],35.9%
same,"viability, T/C",[13],113%
same,"viability, T/C",[14],99.5%
same,"viability, T/C",[15],75.6%
same,"viability, T/C",[16],59.3%
same,"viability, T/C",[17],44.1%
same,"viability, T/C",[18],35.2%
same,"viability, T/C",[19],85%
same,"viability, T/C",[20],80.7%
same,"viability, T/C",[21],68.7%
same,"viability, T/C",[22],67.6%
same,"viability, T/C",[23],44.5%
same,"viability, T/C",[24],38.1%
same,"viability, T/C",[25],83.2%
same,"viability, T/C",[26],71.8%
same,"viability, T/C",[27],67.6%
same,"viability, T/C",[28],69.6%
same,"viability, T/C",[29],33.2%
same,"viability, T/C",[30],30.8%
same,"viability, T/C",[31],55.4%
same,"viability, T/C",[32],59.5%
same,"viability, T/C",[33],53.1%
same,"viability, T/C",[34],47.7%
same,"viability, T/C",[35],24.5%
same,"viability, T/C",[36],19.8%
